# Experimental data: patent US20040001859A1, “Anti-aging dietary supplements” (priority 2002, published 2004)
# Tested on: MDA (lipid peroxidation) in blood
# Assay: MDA rat model assay (blood MDA, aged rats)
# Assay type: in vivo, wistar rats
# Description: A total of forty 3.5 year old wistar rats were divided into four groups, each containing 10 rats. Groups A, B, C and VE were treated with the activated yeast composition, the control yeast composition, saline and Vitamin E, respectively. Eight 8 month old wistar rats were also selected for group D, which were used as a junior control group.
# Groups A, B and VE were administered daily 3 ml/kg (body weight) of the activated yeast composition, 3 ml/kg of the control yeast composition and 0.25 mg/kg of Vitamin E, respectively. Groups C and D were both treated with 3 ml/kg of saline daily. After three months of treatment, blood samples were taken from the heart of the rats and placed in a test tube with heparin. The test tube was then incubated at 37° C. for 10 minutes and centrifuged at 2500 rpm for 10 minutes. 4 ml of sulfuric acid and 0.5 ml of phosphotungstic acid were added to the serum and left at room temperature for 5 minutes after mixing. The mixture was then centrifuged at 3000 rpm for 10 minutes. 2 ml of sulfuric acid and 0.3 ml of phosphotungstic acid were added to the precipitate. Finally, the mixture was used to determine the MDA concentration as described previously.
smiles,measurement,setting,value
"Cc1c(C)c2c(c(C)c1O)CC[C@@](C)(CCC[C@H](C)CCC[C@H](C)CCCC(C)C)O2 [VE, Vitamin E]",MDA,"3.5 year old rats, blood from heart after three months of daily treatment, yeast compositions 3 ml/kg, Vitamin E 0.25 mg/kg",4.36 ± 0.78 µM
same,lipid peroxidation compared to control yeast composition or saline,"aged rats, three months, in words",reduced lipid peroxidation
